Results reported in PMC6615598, “Novel antibiotics effective against gram-positive and -negative multi-resistant bacteria with limited resistance” (PLoS Biology, 2019).
“And” between values parts separate entries of the source, which are not always exact repeats. Equal values may be shown once. Starred links: 1 amine or outer side, 2 acyl side, 3 side chain; linkers in the order of their positions; H or OH if unused. Non-standard residues stand in square brackets, D forms with d. Residues, ends and D or L forms follow the SMILES beside them. azaβ3(1Nal) = O=C(CN(Cc1cccc2ccccc12)N[*:1])[*:2]

What was measured:
MRSA (Mu3) = assay: microbe, parasite or virus in culture; conditions: 15 colonies
Procedure: For 15 d in MHB, MICs were determined daily for each pseudopeptide and their antibiotic controls. This was done using cells from the well in which the compound concentration was one-half of the MIC (1/2MIC). For each compound, the 1/2MIC well from the previous day’s MIC assay plate was re-suspended and the bacteria grown to a density of about 10^8 cells ml−1. The suspension was diluted in MHB or CAMHB (10^6 cells/ml) and then used to determine the MIC of the same compound determined by micro broth dilution. All MIC measurements were performed in duplicate. Aliquots of the 5 × 10^4 cell/ml dilutions for each 1/2MIC well were periodically plated on MHB and incubated at 35°C for 18 h to verify cell density by colony counts and for visual inspection of colony phenotypes. To control compound stability, peptide solution MICs were determined during and at the end of the 15 d and were compared to cells unexposed to antibiotics. In vivo resistance was also assessed in treated mice (1.5 mg.kg^−1) for 4 d (sepsis) or 6 d (skin abscesses). […] The broth microdilution method was performed as per EUCAST recommendations on 5 independent colonies per mouse (3 mice per set, 15 colonies per drug tested). For severe sepsis and subcutaneous abscesses, in vivo resistance was determined by plating aliquots of crude kidney extracts or abscesses on plates containing 1-, 2-, 4-, or 8-fold the peptide MICs 7 or 3 d post infections, respectively.

E. coli ML-35p = assay: Outer membrane permeability, nitrocefin cleavage; assay type: cell-based; conditions: concentration near MIC
Procedure: Outer and inner membrane permeability was determined on E. coli ML-35p, a lactose permease-deficient strain [8]. Permeation assays were carried out on 100 μl MHB from bacteria cultures grown to 0.15 OD600 (10^7 CFU/ml). Nitrocefin (20 μg/ml) was added to the tested molecules at a concentration near to their MICs, and cleavage was monitored by light absorption at 500 nm (outer membrane monitoring). Inner membrane monitoring of cleavage of ONPG (100 μg/ml) and substrate was monitored at 420 nm. Polymyxin B was a positive control, while a bacterial suspension in MHB was the negative control. Permeation assays were also performed on gram-positive S. aureus membranes (MSSA and MRSA) by fluorescence assay with SYTO Green nucleic acid stain (Life Technologies) in black flat-bottom 96-well microtiter plates (Greiner) in biological triplicate. Bacteria were grown to 0.3–0.4 OD600 in CAMHB at 37°C and centrifuged at 3,500 tr/min for 10 min. The pellet was washed and dissolved in PBS to an absorbance of 0.4 at 600 nm (approximately 2.10^8 CFU/ml). […] The amount of 50 μL of bacteria/SYTO Green mixture was added to each well containing compounds serially diluted in PBS, and fluorescence was measured at 37°C for up to 12 h using a spectrophotometer (BIOTEK, Tungsten-Halogen Lamp) with 485 nm excitation and 525 nm emission wavelengths.

P. aeruginosa LESB58 [1] = assay: Cutaneous abscess mouse model (CFU); assay type: in vivo, mice
Procedure: For the cutaneous abscess model, the mice were randomly divided into 5 sets. The mice were anesthetized with isoflurane, their dorsal fur shaved, and their skin disinfected with 70% ethanol. An overnight culture of S. aureus MRSA or P. aeruginosa LESB58 was washed with 0.9% NaCl, and then a subcutaneous injection of 2 × 10^9 CFUs and an equal amount of sterile Cytodex microcarrier beads (20 mg.ml^−1, Sigma) for S. aureus MRSA, or 10^8 CFUs for P. aeruginosa were injected into the shaved area. […] Mice were monitored every day and then euthanized with CO2 on Day 6 or on Day 3. Abscesses were excised, measured, and homogenized in PBS using an Ultra-Turax. Serial dilutions of the samples were plated on BHI (MRSA) or 2YT medium (LESB58) plates and then incubated overnight at 37°C. Afterward, the CFUs were counted and expressed as log CFU/ml. Dermonecrosis areas were calculated according to the formula π × L × W. ATP levels were determined with an ATP assay kit (Promega) according to manufacturer instructions on sets of 5 colonies harboring the SCV phenotype, and sets of 5 colonies harboring a normal phenotype, after growth on BHI plates.

P. aeruginosa LESB58 [2] = conditions: LESB58
Procedure: (10−4 M final concentrations). At selected time intervals, 100 μl of reaction mixture was collected, quenched by 200 μl 95% EtOH, and adjusted at pH 2 to prevent peptide adsorption to serum proteins. […] Supernatants were analyzed by RP-HPLC on an Xbridge C18 column with a linear gradient of water, 0.08% TFA, and acetonitrile with 1% TFA. HPLC peak areas were used to calculate the percentages of intact compound remaining at the various time points. MIC and MBC values were determined in triplicate in many ESKAPE clinical isolates, including a dozen MDR S. aureus, by the broth microdilution method. Peptidomimetics and antibiotics were assayed in a concentration range of 1 to 128 μM. […] After every hour of culture for 4 h, serial dilutions were plated on BHI plates and incubated overnight at 37°C, and then the CFUs were counted and expressed as log CFU/ml. […]
For 15 d in MHB, MICs were determined daily for each pseudopeptide and their antibiotic controls. […] The suspension was diluted in MHB or CAMHB (10^6 cells/ml) and then used to determine the MIC of the same compound determined by micro broth dilution. […] To control compound stability, peptide solution MICs were determined during and at the end of the 15 d and were compared to cells unexposed to antibiotics. In vivo resistance was also assessed in treated mice (1.5 mg.kg^−1) for 4 d (sepsis) or 6 d (skin abscesses). […]

## CC(C)[C@@H]1NC(=O)[C@H](CCCNC(=N)N)NC(=O)[C@H](CCCNC(=N)N)NC(=O)CN(Cc2cccc3ccccc23)NC(=O)[C@H](Cc2ccccc2)NC(=O)CN(Cc2cccc3ccccc23)NC(=O)[C@H](CCCCN)NC1=O [Pep19] (cyclo([azaβ3(1Nal)]F[azaβ3(1Nal)]RRVK))
MRSA (Mu3); MRSA colonies from kidneys of septic mice, d4, single IV 1.5 mg.kg^−1 at 3 h or 15 h
  MIC: 8 (8.8) μM
MRSA (Mu3); MRSA colonies from mice skin abscess, d6, single IV 1.5 mg.kg^−1 at 24 h
  MIC: 16 (16.2) μM
E. coli ML-35p
  Outer membrane permeation: most active
P. aeruginosa LESB58 [1]; cutaneous abscesses induced by P. aeruginosa in mice, repeated doses post-infection, 30mg/kg, second data set, individual values
  CFU counts per abscess: 5.3 log Cfu/ml and 4.34 log Cfu/ml and 3.16 log Cfu/ml and 3.11 log Cfu/ml and 2.85 log Cfu/ml and 6.21 log Cfu/ml and 4.95 log Cfu/ml
P. aeruginosa LESB58 [1]; mice, P. aeruginosa LESB58, 30 mg.kg^−1 subcutaneous twice a day for 2 d, day 3
  Reduction of the bacterial load of abscess: ~50 fold
P. aeruginosa LESB58 [2]
  MIC: 4 µM
